Laboratory results reported in PubChem BioAssay (NCI).
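How tested: cells in 96-well plates exposed to compound for 48 hours at five concentrations. Definition used: TGI = concentration required for complete inhibition of growth.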

Columns and labels:
Experiment in all cases: NCI tumour cell line growth inhibition, 48 h
[1] = test system: HCC-2998 colon
[2] = test system: DU-145 prostate
[3] = test system: MDA-MB-435
[4] = test system: CAKI-1 renal
[5] = test system: HL-60(TB) leukemia
[6] = test system: EKVX NSCLC
[7] = test system: NCI-H522 lung
[8] = test system: SR leukemia
[9] = test system: T-47D breast
[10] = test system: NCI-H460 lung
[11] = test system: SK-OV-3 ovarian
[12] = test system: A498 renal
[13] = test system: IGROV1 ovarian
[14] = test system: COLO 205 colon
[15] = test system: A549 NSCLC
[16] = test system: U251 CNS
[17] = test system: MDA-MB-231 breast
[18] = test system: UACC-257 melanoma
[19] = test system: CCRF-CEM leukemia
[20] = test system: OVCAR-3 ovarian
[21] = test system: SF-268 CNS
[22] = test system: HT29 colon
[23] = test system: OVCAR-5 ovarian
[24] = test system: M14 melanoma
[25] = test system: TK-10 renal
[26] = test system: SK-MEL-2 melanoma
[27] = test system: MCF7 breast
[28] = test system: NCI-H23 lung
[29] = test system: RPMI-8226 leukemia
[30] = test system: 786-0 renal
[31] = test system: ACHN renal
[32] = test system: RXF 393 renal
[33] = test system: SF-295 CNS
[34] = test system: SF-539 CNS
[35] = test system: SK-MEL-5 melanoma
[36] = test system: SW-620 colon
[37] = test system: HOP-62 NSCLC
[38] = test system: K-562 leukemia
[39] = test system: HCT-15 colon
[40] = test system: HOP-92 NSCLC
[41] = test system: OVCAR-8 ovarian
[42] = test system: SNB-75 CNS
[43] = test system: OVCAR-4 ovarian
[44] = test system: MALME-3M melanoma
[45] = test system: NCI/ADR-RES ovarian
[46] = test system: MOLT-4 leukemia
[47] = test system: SK-MEL-28 melanoma
[48] = test system: SNB-19 CNS
[49] = test system: PC-3 prostate
[50] = test system: NCI-H226 lung
[51] = test system: KM12 colon
[52] = test system: BT-549 breast
[53] = test system: SN12C renal
[54] = test system: UO-31 renal
[55] = test system: LOX IMVI melanoma
[56] = test system: HCT-116 colon
[57] = test system: HS 578T breast
[58] = test system: UACC-62 melanoma

COC(=O)CCC(C)[C@H]1CCC2C3C(C[C@H](OC(C)=O)[C@@]21C)[C@@]1(C)CCC2(C[C@H]1C[C@H]3OC(C)=O)OOC1(CCC(C(C)(C)C)CC1)OO2 (some centres not stated)
TGI [1]: > 100 µM
TGI [2]: > 100 µM
TGI [3]: > 100 µM
TGI [4]: > 100 µM
TGI [5]: > 100 µM
TGI [6]: 30 µM
TGI [7]: > 100 µM
TGI [8]: > 100 µM
TGI [9]: > 100 µM
TGI [10]: > 100 µM
TGI [11]: > 100 µM
TGI [12]: > 100 µM
TGI [13]: 48.8 µM
TGI [14]: > 100 µM
TGI [15]: > 100 µM
TGI [16]: > 100 µM
TGI [17]: > 100 µM
TGI [18]: > 100 µM
TGI [19]: > 100 µM
TGI [20]: > 100 µM
TGI [21]: > 100 µM
TGI [22]: > 100 µM
TGI [23]: > 100 µM
TGI [24]: > 100 µM
TGI [25]: > 100 µM
TGI [26]: > 100 µM
TGI [27]: > 100 µM
TGI [28]: > 100 µM
TGI [29]: 45.2 µM
TGI [30]: > 100 µM
TGI [31]: > 100 µM
TGI [32]: > 100 µM
TGI [33]: > 100 µM
TGI [34]: > 100 µM
TGI [35]: > 100 µM
TGI [36]: > 100 µM
TGI [37]: 29 µM
TGI [38]: > 100 µM
TGI [39]: > 100 µM
TGI [40]: > 100 µM
TGI [41]: > 100 µM
TGI [42]: > 100 µM
TGI [43]: > 100 µM
TGI [44]: > 100 µM
TGI [45]: > 100 µM
TGI [46]: > 100 µM
TGI [47]: > 100 µM
TGI [48]: > 100 µM
TGI [49]: > 100 µM
TGI [50]: > 100 µM
TGI [51]: > 100 µM
TGI [52]: > 100 µM
TGI [53]: > 100 µM
TGI [54]: 29 µM
TGI [55]: > 100 µM
TGI [56]: > 100 µM
TGI [57]: > 100 µM

N#Cc1c(N)c2c(c(-c3ccccc3)c1-c1ccccc1)C(=O)N(NC(=S)Nc1ccccc1)C2=O
TGI [1]: > 100 µM
TGI [2]: > 100 µM
TGI [3]: > 100 µM
TGI [4]: > 100 µM
TGI [5]: > 100 µM
TGI [6]: > 100 µM
TGI [7]: > 100 µM
TGI [8]: > 100 µM
TGI [9]: > 100 µM
TGI [10]: > 100 µM
TGI [12]: > 100 µM
TGI [13]: > 100 µM
TGI [14]: > 100 µM
TGI [15]: > 100 µM
TGI [16]: > 100 µM
TGI [17]: > 100 µM
TGI [18]: > 100 µM
TGI [19]: > 100 µM
TGI [20]: > 100 µM
TGI [21]: > 100 µM
TGI [23]: > 100 µM
TGI [24]: > 100 µM
TGI [25]: > 100 µM
TGI [26]: > 100 µM
TGI [27]: > 100 µM
TGI [29]: > 100 µM
TGI [30]: > 100 µM
TGI [31]: > 100 µM
TGI [32]: 93.8 µM
TGI [33]: > 100 µM
TGI [34]: > 100 µM
TGI [35]: > 100 µM
TGI [36]: > 100 µM
TGI [38]: > 100 µM
TGI [39]: > 100 µM
TGI [40]: > 100 µM
TGI [41]: > 100 µM
TGI [42]: > 100 µM
TGI [43]: > 100 µM
TGI [44]: > 100 µM
TGI [45]: > 100 µM
TGI [46]: > 100 µM
TGI [47]: > 100 µM
TGI [48]: > 100 µM
TGI [49]: > 100 µM
TGI [50]: > 100 µM
TGI [51]: > 100 µM
TGI [52]: > 100 µM
TGI [53]: > 100 µM
TGI [54]: > 100 µM
TGI [58]: > 100 µM
TGI [55]: > 100 µM
TGI [56]: > 100 µM
TGI [57]: > 100 µM

Cc1ccccc1N1C(N)=C(C#N)C(C#N)(C#N)C1c1ccccc1 (configuration not stated)
TGI [1]: 32.4 µM
TGI [2]: 30.8 µM
TGI [3]: 35.4 µM
TGI [4]: > 100 µM
TGI [5]: 44.2 µM
TGI [6]: 42.8 µM
TGI [7]: 32.1 µM
TGI [8]: 60.4 µM
TGI [9]: 31 µM
TGI [11]: 86.6 µM
TGI [12]: 33.7 µM
TGI [13]: 33.9 µM
TGI [14]: 33.4 µM
TGI [15]: 62.7 µM
TGI [16]: 31.9 µM
TGI [17]: 30.8 µM
TGI [18]: 32 µM
TGI [19]: 36.7 µM
TGI [20]: 35.6 µM
TGI [21]: 45.7 µM
TGI [22]: 34.2 µM
TGI [23]: 41.5 µM
TGI [24]: 45 µM
TGI [25]: 28.4 µM
TGI [26]: 55.3 µM
TGI [27]: 42.6 µM
TGI [28]: 38.6 µM
TGI [29]: 45.2 µM
TGI [30]: 32.3 µM
TGI [31]: 35.1 µM
TGI [32]: 33.9 µM
TGI [33]: 68.9 µM
TGI [34]: 37.9 µM
TGI [35]: 30.1 µM
TGI [36]: 31.7 µM
TGI [37]: 42.5 µM
TGI [39]: 35.9 µM
TGI [40]: 35.9 µM
TGI [41]: 38.4 µM
TGI [42]: 46 µM
TGI [43]: 40.9 µM
TGI [44]: 32.6 µM
TGI [45]: 42.2 µM
TGI [46]: 39.3 µM
TGI [47]: 36.5 µM
TGI [48]: 41.2 µM
TGI [49]: 51 µM
TGI [50]: 38.8 µM
TGI [51]: 32.6 µM
TGI [52]: 28.8 µM
TGI [53]: 59 µM
TGI [54]: 31.2 µM
TGI [58]: 37.7 µM
TGI [55]: 32.7 µM
TGI [56]: 33.6 µM
TGI [57]: 58 µM
